Values quoted from earlier work as cited in patent US20090054331A1, “HIGH TEMPERATURE STABLE PEPTIDE FORMULATION” (priority 2007, published 2009).

Assays:
[1] = in vivo
human dental defects = conditions: clinical trial
human dental pulp cells = conditions: in vitro

## TDLQERGDNDISPFSGDGQPFKD [AC-100]
[1]
  bone formation activities: has shown bone formation activities in vivo
Human dental defects
  formation of new dentin: formation of new dentin
Human osteoblasts
  effect on proliferation, differentiation and mineralization of human osteoblasts: stimulate proliferation, differentiation, and mineralization
Human dental pulp cells
  proliferation of human dental pulp cells: stimulation of the proliferation
